Source: patent US10351883B2, “Compounds for increasing lipid synthesis and storage” (NUtech Ventures, priority 2015, dated 2019)
Read-outs that look alike come from different tables or passages of the source.

System: Chlamydomonas reinhardtii
Assay: 8-point dose response assay (0.25-30 μM)
Type: cell-based
Parameters: reference not given here
Conditions: for Dose Response Assay 0.25 μM: 0.25 μM compound; for Dose Response Assay 0.625 μM: 0.625 μM compound; for Dose Response Assay 2.5 μM: 2.5 μM compound; for Dose Response Assay 5 μM: 5 μM compound; for Dose Response Assay 10 μM: 10 μM compound; for Dose Response Assay 15 μM: 15 μM compound; for Dose Response Assay 30 μM: 30 μM compound
Procedure: A large scale in vivo high throughput screen (HTS) was performed to identify small compounds that stimulate lipid production and accumulation using the model organism Chlamydomonas reinhardtii. The HTS employed a 384-well microplate format in which cells were allowed to grow in the presence of the test compounds at 10 μM final concentration for 72 hours.
The screening library included 43,736 compounds (ChemBridge, Corp). […] A sub-set of compounds were retested using an 8-point dose response assay (0.25-30 μM). Compounds were further assessed visually using a Nikon Ti-inverted microscope (60×) to reconfirm lipid droplet accumulation was induced.

[1] = 8-point dose response, Nile Red lipid accumulation
[2] = 1.25 μM compound, 8-point dose response, Nile Red lipid accumulation

Row | Structure (SMILES) | Dose Response Assay 0.25 μM [1] | Dose Response Assay 0.625 μM [1] | Dose Response Assay 1.25 μM [2] | Dose Response Assay 2.5 μM [1] | Dose Response Assay 5 μM [1] | Dose Response Assay 10 μM [1] | Dose Response Assay 15 μM [1] | Dose Response Assay 30 μM [1] | Dose Response Assay 1.25 μM
1 | Cc1ccc(S(=O)(=O)c2ccc(-c3ccc([N+](=O)[O-])cc3)cc2)cc1 [Compound 2] | 0.96 | 1.01 | 0.94 | 0.99 | 1.1 | 1.53 | 1.34 | 2.11 | –
2 | Cc1cccc(N2CCN(Cc3ccc([N+](=O)[O-])cc3)CC2)c1C [Compound 5] | 0.97 | 0.85 | 0.80 | 0.91 | 1.28 | 2.07 | 1.96 | 2.81 | –
3 | O=C(Nc1ccc([N+](=O)[O-])cc1)c1ccccc1Cl [Compound 11] | 1.02 | 1.12 | 0.97 | 0.93 | 1.46 | 2.78 | 2.28 | 1.78 | –
4 | Cc1c(C(=O)Nc2ccc(F)c(F)c2)cccc1[N+](=O)[O-] [Compound 17] | 1.09 | 1.03 | 0.89 | 0.89 | 1.07 | 0.92 | 1.04 | 1.67 | –
5 | CC(=O)Nc1ccc(S(=O)(=O)Nc2cc([N+](=O)[O-])ccc2C)cc1 [Compound 18] | 1.01 | 0.97 | 0.89 | 1.13 | 1.17 | 1.19 | 1.31 | 1.29 | –
6 | CC(=O)c1nc2cc([N+](=O)[O-])ccc2n1Cc1ccccc1 [Compound 23] | 1.02 | 1 | 0.79 | 0.78 | 1.04 | 1.1 | 1.43 | 1.15 | –
7 | COc1ccc(C(=O)NCCN2CCOCC2)cc1[N+](=O)[O-] [Compound 24] | 1.13 | 0.87 | 0.84 | 0.97 | 0.99 | 1.18 | 1.19 | 1.25 | –
8 | C=CCn1c(SCC(=O)O)nnc1-c1ccc([N+](=O)[O-])cc1 [Compound 25] | 1.15 | 1.13 | 0.99 | 1.02 | 1 | 1 | 1.33 | 1.34 | –
9 | Cc1ccsc1C=C(C#N)c1nc(-c2ccc([N+](=O)[O-])cc2)cs1 [Compound 30] | 1.15 | 1.05 | 1.16 | 0.84 | 0.99 | 0.82 | 1.37 | 1.73 | –
10 | Cc1cc(C)c(NC(=O)COc2ccccc2[N+](=O)[O-])c(C)c1 [Compound 35] | 1.09 | 1.49 | 1.23 | 1.96 | 1.91 | 2.65 | 2.5 | 2.51 | –
11 | O=C(Nc1ccc(Cc2ccncc2)cc1)c1ccc([N+](=O)[O-])cc1Cl [Compound 37] | 1.04 | 0.97 | 1.39 | 1.85 | 1.93 | 1.76 | 1.16 | 1.15 | –
12 | O=C(Nc1ccc([N+](=O)[O-])cc1)c1cccc(Cl)c1Cl [Compound 38] | 1.06 | 1.38 | 1.23 | 2.23 | 2.64 | 2.94 | 2.61 | 2 | –
13 | O=[N+]([O-])c1ccccc1CN1CCN(CC2CC3C=CC2C3)CC1 (stereo not drawn) [Compound 39] | 1.17 | 1.13 | 0.99 | 1.18 | 1.18 | 0.88 | 1.57 | 1.38 | –
14 | COc1ccc(C(=O)c2ccc(N3CCN(C)CC3)c([N+](=O)[O-])c2)cc1 [Compound 45] | 0.93 | 0.99 | 1.57 | 2.3 | 3.61 | 2.02 | 2.06 | 1.56 | –
15 | Cc1ccc(C(=O)c2ccc(N3CCN(C)CC3)c([N+](=O)[O-])c2)cc1 [Compound 46] | 1.23 | 0.96 | 0.94 | 1.61 | 2.31 | 2.75 | 2.63 | 1.78 | –
16 | Cc1c(NC(=O)COc2ccc(Br)cc2)cccc1[N+](=O)[O-] [Compound 47] | 0.90 | 0.81 | 0.91 | 1.3 | 0.95 | 1.37 | 1.27 | 1.19 | –
17 | O=C(Nc1ccccc1C(=O)NCc1ccccc1)c1ccc([N+](=O)[O-])cc1 [Compound 53] | 1.06 | 1.38 | 1.13 | 1.1 | 1.42 | 1.57 | 1.61 | 2.49 | –
18 | Cc1ccc(C(=O)Nc2ccccc2C(=O)NC(C)C)cc1[N+](=O)[O-] [Compound 54] | 1.05 | 1.53 | 2.13 | 2.32 | 2.79 | 1.73 | 1.78 | 1.58 | –
19 | Cc1c(C(=O)Nc2ccccc2C(=O)NCc2ccccc2)cccc1[N+](=O)[O-] [Compound 55] | 1.3 | 1.77 | 2.01 | 2.27 | 2.23 | 2.04 | 2.26 | 2.77 | –
20 | O=C(Nc1ccc([N+](=O)[O-])cc1)c1c(F)c(F)c(F)c(F)c1F [Compound 56] | 1.2 | 1.2 | 1.34 | 1.8 | 2.58 | 2.71 | 1.74 | 1.92 | –
21 | CCC1CCCCN1C(=O)c1ccc(Cl)cc1[N+](=O)[O-] (stereo not drawn) [Compound 57] | 0.99 | 1.06 | 1.01 | 0.90 | 1.28 | 1.11 | 1.15 | 1.87 | –
22 | O=C1CC(N2CCc3ccccc3C2)C(=O)N1c1ccc([N+](=O)[O-])cc1 (stereo not drawn) [Compound 58] | 1.06 | 0.94 | 1.14 | 0.90 | 1.22 | 1.15 | 1.42 | 1.56 | –
23 | CCOc1c(Cl)cc(C(=O)Nc2cccc([N+](=O)[O-])c2)cc1Cl [Compound 61] | 0.90 | 0.96 | 0.92 | 0.95 | 1.04 | 0.91 | 1.24 | 1.14 | –
24 | COc1ccccc1N1CCN(Cc2ccc(Cl)cc2)CC1 [Compound 68] | 1.07 | 1.05 | – | 2.15 | 2.1 | 1.95 | 2.74 | 2.03 | 1.28
